Reference: patent US7855188B2, “Quarternized amino glucosamine compound for exerting anticancer effect” (Pukyong National University Industry-Academic Cooperation …, priority 2006, dated 2010)

Tests used:
[1] = tested on: colon cancer cell (SW480), lung cancer cell (A549), mouse melanoma cell (B16F1), leukemia cancer cell (HL60) and liver cancer cell (Hep3B); assay: MTT cell viability assay on various cancer cells; assay type: cell-based; details: after 36 h of treatment; effect concentration dependent; serum free media
Procedure: (§1) In order to assay the cell cytotoxicity of glucosamine and quaternized amino glucosamine on colon cancer cell (SW480), lung cancer cell (A549), mouse melanoma cell (B16F1), leukemia cancer cell (HL60) and liver cancer cell (Hep3B), MTT assay was performed with different sample concentrations and incubation time intervals.
(§2) Cells were cultured in microtiter 96-well plates with serum free media and treated with different sample concentrations for varying time intervals and anticancer effect was assessed using MTT cell viability assay. The result was represented in FIG. 2. […] Moreover, the effect was concentration dependent.

[2] = tested on: B16F1 cells; assay: MTT cytotoxicity assay in B16F1 cells; assay type: cell-based, mouse; details: after 48 h of incubation, concentrations below 0.01%
Procedure: as §1, §2
B16F1 cells were treated with different concentrations of quaternized amino glucosamine and cytotoxicity was determined using MTT assay. […] This effect could be confirmed when the B16F1 cells were transfected with promoter plasmids of p53 and p21 treated with different concentrations of QAGlc. Induction of phosphor p53 observed in western blot analysis further confirmed that quaternized amino glucosamine induce apoptosis via p53 dependant pathway.

[3] = tested on: B16F1 cells; assay: Detection of apoptosis by DNA fragmentation assay; assay type: cell-based, mouse
Procedure: In order to examine anticancer effect and mechanism of QAGlc, B16F1 cells cultured in 10 cm culture dishes were pre-treated with different concentrations of QAGlc and apoptosis was induced with 2 mM H2O2. Then, cell incubation was performed for different time periods. Cell was rinsed and total DNA was extracted with the standard procedure. DNA was electrophoresed on a 2% agarose gel and DNA fraction was visualized using ethedium bromide staining. The result was represented in FIG. 3.
B16F1 cells cultured in 10 cm culture dishes were pretreated with different concentrations of QAGlc and apoptosis was induced with 2 mM H2O2. After incubating for 48 h, genomic DNA was extracted and electrophoresed on a 2% agarose gel. The result was represented in FIG. 4.

[4] = tested on: p53; assay: RT-PCR of p53 mRNA; assay type: cell-based, mouse; details: B16F1 cells
Procedure: (§3) B16F1 cells were treated with QAGlc and total RNA was extracted. PCR was carried out using RT-generated cDNA encoding p53, p21 and GSPDH with their specific primers to amplify p53 and G3PDH mRNA. PCR products were analyzed on a 2% agarose gel. The mRNA of G3PDH served as an internal control for sample loading and mRNA integrity. The result was represented in FIG. 5.

[5] = tested on: p21; assay: RT-PCR of p21 mRNA; assay type: cell-based, mouse; details: B16F1 cells; time dependant
Procedure: as §3

[6] = tested on: p53 gene; assay: p53-luc gene reporter assay; assay type: cell-based, mouse; details: B16F1 cells
Procedure: (§4) B16F1 cells were transfected with p53-luc, p21-Luc reporter vectors and β-galactosidase expression vector by lipofectamine (Invitrogen) transfection method. After 24 h of transfection, cells were subcultured into 24 well plates and cells treated with different concentrations of QAGlc. The luciferase activity value was normalized to transfection efficiency monitored by the cotransfected β-galactosidase expression vector. The level of induction of luciferase was determined as a ratio in comparison to cells with no stimulation. The result was represented in FIG. 6.

[7] = tested on: p21 gene; assay: p21-Luc gene reporter assay; assay type: cell-based, mouse; details: B16F1 cells; all concentrations; compared to the control
Procedure: as §4
According to the method described above, p21 gene was transfected to B16F1 cells according to the method described above and gene expression after the treatment of QAGlc was determined by relative luciferase activity. The result was represented in FIG. 7.

[8] = tested on: phospho p53 protein; assay: Western blot analysis of phospho p53; assay type: cell-based, mouse; details: B16F1 cells; different time intervals
Procedure: After treatment of QAGlc for different time intervals, cells were lysed in RIPA buffer [10 mmol Tris-HCL (pH 7.4), 1% deoxycholate, 1% NP40, 150 mmol NaCl, 0.1% SDS, 0.2 mmol phenylmethyl sulfonyl fluoride, 1 mg/L aprotinin and 1 mg/L leupeptin] for 30 min on ice. The lysates were centrifuged at 12,000×g for 15 min to remove debris. Protein samples were resolved using a […] Novex gradient gel (Invitrogen, USA), electrotransferred onto a nitrocellulose membrane, and blocked with 10% skim milk. Monoclonal antibodies of phosphorylated p-53 (Cat. No, Chemicon, CA, USA) were used to detect phosphor-p53 protein using chemiluminescent ECL assay kit (Amersham Pharmacia Biosciences, NJ, USA) according to the manufacturer's instructions. Western blot bands were quantified using ImageMaster software (Amersham Pharmacia Biosciences, NJ, USA). The result was represented in FIG. 8.

[9] = tested on: B16F1 cells; assay: FACS analysis of apoptotic cells; assay type: cell-based, mouse
[10] = after 24 h and 36 h of incubation

C[N+](C)(C)CC(O)CNC1[C@H](O)OC(CO)[C@@H](O)[C@H]1O (stereo partly drawn) [QAGlc, quaternized amino glucosamine]
anticancer effect (cell cytotoxicity, MTT) [1]: clear anticancer effect
anticancer effect (cytotoxicity, MTT) [2]: clear anticancer effect was observed
incubation time after which DNA damage was first observed ([3]; 100 μg/ml, apoptosis induced with 2 mM H2O2): 36 h
DNA damage (DNA fragmentation) ([3]; 48 h incubation, 100 μg/ml): higher DNA damage
DNA damage (DNA fragmentation) ([3]; 48 h incubation, different concentrations, 2 mM H2O2): higher DNA damage dose-dependently
DNA damage (DNA fragmentation) ([3]; prolonged incubation (after 36 h), all tested concentrations): clear effect DNA damage by all the tested concentrations dose-dependently
p53 transcription [4, 10]: up-regulated
p53 transcription compared with etoposide [4, 10]: much higher than that of etoposide
induction of p53 gene (RT-PCR products) ([4]; time dependant): induction of p53 and p21 genes in time dependant manner
induction of p21 gene (RT-PCR products) [5]: induction of p53 and p21 genes in time dependant manner
p53 gene expression effect relative to etaposide ([6]; 100 μg/ml): 2 fold
p53 gene expression (luciferase reporter) ([6]; different concentrations): up-regulated dose dependently
p21 gene expression (relative luciferase activity) [7]: significantly enhanced
phospho p53 protein level [8]: increase phospho p53 protein level in a time dependant manner
production of apoptotic cells [9]: increase the production of apoptotic cells
